What was measured:
[1] = 50 mg/kg CAB LA, 200 mg/kg RPV intramuscularly once a month; cited from earlier work
[2] = rhesus monkey, in vivo
HIV = settings: cited from earlier work

SMILES	Plasma concentration relative to protein-adjusted concentration required for 90% viral inhibition [1]	Time after the last dose over which plasma concentration declined to undetectable levels (remained detected) [2]	Protein-adjusted concentration required for 90% viral inhibition (HIV)
Cc1cc(/C=C/C#N)cc(C)c1Nc1ccnc(Nc2ccc(C#N)cc2)n1 [RPV, rilpivirine]	well above	4-7 months	
C[C@H]1CO[C@@H]2Cn3cc(C(=O)NCc4ccc(F)cc4F)c(=O)c(O)c3C(=O)N12 [CAB, cabotegravir]	well above	4-7 months	0.166 µg/mL
